From patent US20100292231A1, “Indazole Compounds for Treating Inflammatory Disorders, Demyelinating Disorders and Cancers” (priority 2007, published 2010)
Read-outs that look alike come from different tables or passages of the source.

How the values were obtained:
Assay in all cases: SelectScreen kinase specificity survey
Assay type in all cases: biochemical
ABL2 (Arg) = target: T1, ABL2 (Arg) (Homo sapiens, UniProt P42684); settings: estimated, abridged dose response curve, read-out: Kinase inhibitory activity EC50
T1 construct: purchased Invitrogen (SelectScreen platform)
T1 sequence (P42684 whole entry): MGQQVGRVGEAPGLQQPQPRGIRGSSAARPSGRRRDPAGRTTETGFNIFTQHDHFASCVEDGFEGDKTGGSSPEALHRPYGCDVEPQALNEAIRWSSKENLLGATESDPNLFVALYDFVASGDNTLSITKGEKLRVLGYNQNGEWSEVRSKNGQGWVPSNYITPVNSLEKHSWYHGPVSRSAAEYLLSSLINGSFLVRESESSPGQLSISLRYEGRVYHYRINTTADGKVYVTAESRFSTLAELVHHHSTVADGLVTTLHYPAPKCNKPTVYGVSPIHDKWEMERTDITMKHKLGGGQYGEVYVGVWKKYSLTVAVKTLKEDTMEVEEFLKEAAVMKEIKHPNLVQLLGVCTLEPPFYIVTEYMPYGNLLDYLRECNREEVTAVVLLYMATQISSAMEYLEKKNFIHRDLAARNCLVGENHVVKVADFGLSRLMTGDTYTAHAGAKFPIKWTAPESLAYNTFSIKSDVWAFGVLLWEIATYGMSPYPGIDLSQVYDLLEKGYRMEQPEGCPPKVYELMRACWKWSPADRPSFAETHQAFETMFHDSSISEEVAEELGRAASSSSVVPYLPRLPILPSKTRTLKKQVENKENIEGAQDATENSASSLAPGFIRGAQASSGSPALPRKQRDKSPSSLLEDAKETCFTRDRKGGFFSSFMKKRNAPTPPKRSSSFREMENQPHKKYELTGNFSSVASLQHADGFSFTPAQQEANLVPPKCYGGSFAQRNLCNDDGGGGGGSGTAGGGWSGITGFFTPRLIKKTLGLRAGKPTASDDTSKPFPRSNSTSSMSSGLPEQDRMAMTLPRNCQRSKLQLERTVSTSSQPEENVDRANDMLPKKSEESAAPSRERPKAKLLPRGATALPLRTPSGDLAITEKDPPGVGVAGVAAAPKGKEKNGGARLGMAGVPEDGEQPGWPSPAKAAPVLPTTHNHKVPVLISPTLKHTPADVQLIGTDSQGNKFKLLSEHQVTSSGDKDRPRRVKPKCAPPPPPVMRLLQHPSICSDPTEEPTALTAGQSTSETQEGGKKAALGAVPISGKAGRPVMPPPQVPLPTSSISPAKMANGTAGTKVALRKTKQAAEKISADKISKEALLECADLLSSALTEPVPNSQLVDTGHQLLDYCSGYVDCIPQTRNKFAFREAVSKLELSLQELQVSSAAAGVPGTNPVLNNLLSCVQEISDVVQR
In short: (§1)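 ATP held at 100 micromolar; every kinase had its own substrate and optical reporter. The compound was dosed in 5 increments, and a 4-parameter Hill curve gave the EC50 estimate.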

ADRBK2 (BARK2, GRK3) = target: T2, ADRBK2 (BARK2, GRK3) (Homo sapiens, UniProt P35626)
T2 construct: purchased Invitrogen (SelectScreen platform)
In short: as §1

BLK = target: T3, BLK (Homo sapiens, UniProt P51451); settings: estimated, abridged dose response curve, read-out: Kinase inhibitory activity EC50
T3 construct: purchased Invitrogen (SelectScreen)
In short: as §1

BTK = target: T4, BTK (Homo sapiens, UniProt Q06187); settings: estimated, abridged dose response curve, read-out: Kinase inhibitory activity EC50
T4 construct: purchased Invitrogen (SelectScreen)
In short: as §1

CAMK2A (CaMKII alpha) = target: T5, CAMK2A (CaMKII alpha) (Homo sapiens, UniProt Q9UQM7); settings: estimated, abridged dose response curve, read-out: Kinase inhibitory activity EC50
T5 construct: purchased Invitrogen, Inc. (SelectScreen platform)
In short: as §1

CDC42 BPA (MRCKA) = target: T6, CDC42 BPA (MRCKA) (Homo sapiens, UniProt Q5VT25); settings: estimated, abridged dose response curve, read-out: Kinase inhibitory activity EC50
T6 construct: purchased Invitrogen (SelectScreen platform)
T6 sequence (Q5VT25 whole entry): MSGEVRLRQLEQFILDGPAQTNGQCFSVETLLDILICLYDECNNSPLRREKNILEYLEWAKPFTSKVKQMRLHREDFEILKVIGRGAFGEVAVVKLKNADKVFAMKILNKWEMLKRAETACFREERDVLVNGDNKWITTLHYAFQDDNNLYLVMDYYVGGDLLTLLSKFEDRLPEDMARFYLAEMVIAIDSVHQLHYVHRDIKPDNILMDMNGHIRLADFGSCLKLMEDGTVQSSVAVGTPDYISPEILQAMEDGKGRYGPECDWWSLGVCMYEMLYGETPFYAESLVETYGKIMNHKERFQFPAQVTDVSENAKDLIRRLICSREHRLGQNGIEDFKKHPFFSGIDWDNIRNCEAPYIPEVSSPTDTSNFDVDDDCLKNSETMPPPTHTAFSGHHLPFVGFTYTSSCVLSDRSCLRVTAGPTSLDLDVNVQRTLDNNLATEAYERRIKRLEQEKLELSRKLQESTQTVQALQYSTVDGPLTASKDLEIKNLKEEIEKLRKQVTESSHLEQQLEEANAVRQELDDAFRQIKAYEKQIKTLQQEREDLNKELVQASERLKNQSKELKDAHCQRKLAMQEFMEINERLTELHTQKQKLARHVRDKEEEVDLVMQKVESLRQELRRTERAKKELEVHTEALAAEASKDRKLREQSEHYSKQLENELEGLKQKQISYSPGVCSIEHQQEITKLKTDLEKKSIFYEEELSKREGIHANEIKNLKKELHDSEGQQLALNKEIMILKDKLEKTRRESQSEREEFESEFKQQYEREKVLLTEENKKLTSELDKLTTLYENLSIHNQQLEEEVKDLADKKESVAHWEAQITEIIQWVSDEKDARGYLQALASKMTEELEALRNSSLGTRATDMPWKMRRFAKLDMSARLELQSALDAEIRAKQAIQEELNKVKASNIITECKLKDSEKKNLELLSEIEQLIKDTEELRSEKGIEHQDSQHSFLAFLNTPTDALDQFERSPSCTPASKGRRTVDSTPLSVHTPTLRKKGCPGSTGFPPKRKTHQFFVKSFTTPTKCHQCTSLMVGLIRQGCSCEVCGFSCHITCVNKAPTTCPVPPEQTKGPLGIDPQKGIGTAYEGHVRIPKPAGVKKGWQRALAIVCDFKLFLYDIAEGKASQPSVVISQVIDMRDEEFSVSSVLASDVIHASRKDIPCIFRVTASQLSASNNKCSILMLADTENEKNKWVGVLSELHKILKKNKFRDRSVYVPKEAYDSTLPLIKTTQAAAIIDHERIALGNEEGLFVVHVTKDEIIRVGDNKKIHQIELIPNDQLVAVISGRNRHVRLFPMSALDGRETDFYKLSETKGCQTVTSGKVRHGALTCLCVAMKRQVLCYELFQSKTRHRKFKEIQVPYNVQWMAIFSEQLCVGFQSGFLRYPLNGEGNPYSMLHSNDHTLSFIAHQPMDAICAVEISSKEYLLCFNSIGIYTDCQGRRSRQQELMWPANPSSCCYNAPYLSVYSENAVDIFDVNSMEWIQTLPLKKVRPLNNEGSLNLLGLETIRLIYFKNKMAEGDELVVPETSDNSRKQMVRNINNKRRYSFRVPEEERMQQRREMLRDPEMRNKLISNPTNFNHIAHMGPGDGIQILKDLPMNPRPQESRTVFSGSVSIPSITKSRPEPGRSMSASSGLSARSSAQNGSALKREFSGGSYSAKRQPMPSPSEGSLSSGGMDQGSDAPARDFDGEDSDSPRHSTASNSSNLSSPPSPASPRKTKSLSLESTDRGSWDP
In short: as §1

CSNK1D (CK1 delta) = target: T7, CSNK1D (CK1 delta) (Homo sapiens, UniProt P48730); settings: estimated, abridged dose response curve, read-out: Kinase inhibitory activity EC50
T7 construct: purchased Invitrogen (SelectScreen platform)
In short: as §1

DYRK1A = target: T8, DYRK1A (Homo sapiens, UniProt Q13627); settings: estimated, abridged dose response curve, read-out: Kinase inhibitory activity EC50
T8 construct: purchased Invitrogen (SelectScreen platform)
In short: as §1

DYRK3 = target: T9, DYRK3 (Homo sapiens, UniProt O43781); settings: estimated, abridged dose response curve, read-out: Kinase inhibitory activity EC50
T9 construct: purchased Invitrogen (SelectScreen platform)
T9 sequence (O43781 whole entry): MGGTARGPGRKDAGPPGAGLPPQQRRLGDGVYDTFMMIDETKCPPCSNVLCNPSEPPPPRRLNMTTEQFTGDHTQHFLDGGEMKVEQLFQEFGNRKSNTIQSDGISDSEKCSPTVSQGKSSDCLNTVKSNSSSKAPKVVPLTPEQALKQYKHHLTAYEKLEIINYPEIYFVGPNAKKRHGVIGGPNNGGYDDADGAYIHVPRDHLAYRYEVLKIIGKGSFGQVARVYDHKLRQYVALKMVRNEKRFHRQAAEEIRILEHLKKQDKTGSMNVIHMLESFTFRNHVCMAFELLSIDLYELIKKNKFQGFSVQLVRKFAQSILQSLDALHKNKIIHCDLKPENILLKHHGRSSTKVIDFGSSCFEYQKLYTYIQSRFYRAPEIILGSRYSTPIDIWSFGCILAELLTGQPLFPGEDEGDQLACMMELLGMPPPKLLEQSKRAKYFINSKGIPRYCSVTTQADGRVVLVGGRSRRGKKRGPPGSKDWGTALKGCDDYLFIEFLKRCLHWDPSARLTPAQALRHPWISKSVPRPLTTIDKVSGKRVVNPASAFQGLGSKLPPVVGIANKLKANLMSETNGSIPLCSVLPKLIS
In short: as §1

EGFR (ErbB1) = target: T10, EGFR (ErbB1) (Homo sapiens, UniProt P00533); settings: estimated, abridged dose response curve, read-out: Kinase inhibitory activity EC50
T10 construct: purchased Invitrogen (SelectScreen service)
In short: as §1

EPHA1 = target: T11, EPHA1 (Homo sapiens, UniProt P21709); settings: estimated, abridged dose response curve, read-out: Kinase inhibitory activity EC50
T11 construct: purchased Invitrogen (SelectScreen service)
In short: as §1

EPHB3 = target: T12, EPHB3 (Homo sapiens, UniProt P54753); settings: estimated, abridged dose response curve, read-out: Kinase inhibitory activity EC50
T12 construct: purchased Invitrogen (SelectScreen service)
In short: as §1

FGFR2 = target: T13, FGFR2 (Homo sapiens, UniProt P21802); settings: estimated, abridged dose response curve, read-out: Kinase inhibitory activity EC50
T13 construct: purchased Invitrogen (SelectScreen platform)
T13 sequence (P21802 22-821): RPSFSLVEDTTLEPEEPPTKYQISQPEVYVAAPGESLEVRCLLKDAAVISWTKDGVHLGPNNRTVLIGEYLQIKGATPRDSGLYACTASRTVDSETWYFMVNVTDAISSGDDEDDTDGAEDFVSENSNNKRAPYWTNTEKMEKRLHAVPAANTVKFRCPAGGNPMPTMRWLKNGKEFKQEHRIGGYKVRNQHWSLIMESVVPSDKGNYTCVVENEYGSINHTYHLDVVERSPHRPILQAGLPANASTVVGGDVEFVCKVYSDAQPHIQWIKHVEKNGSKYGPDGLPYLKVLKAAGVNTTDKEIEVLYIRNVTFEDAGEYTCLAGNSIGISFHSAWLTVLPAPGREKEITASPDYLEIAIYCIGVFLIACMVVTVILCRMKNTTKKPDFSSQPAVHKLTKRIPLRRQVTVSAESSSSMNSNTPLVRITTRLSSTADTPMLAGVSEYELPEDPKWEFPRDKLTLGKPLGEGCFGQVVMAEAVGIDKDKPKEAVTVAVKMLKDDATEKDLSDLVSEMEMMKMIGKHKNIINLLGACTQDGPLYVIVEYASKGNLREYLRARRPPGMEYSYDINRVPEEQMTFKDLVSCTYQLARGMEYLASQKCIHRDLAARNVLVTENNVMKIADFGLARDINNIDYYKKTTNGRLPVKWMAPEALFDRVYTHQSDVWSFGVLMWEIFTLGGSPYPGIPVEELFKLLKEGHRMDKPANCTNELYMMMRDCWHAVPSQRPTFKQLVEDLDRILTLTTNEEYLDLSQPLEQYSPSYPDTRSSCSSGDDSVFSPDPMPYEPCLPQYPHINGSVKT
In short: as §1

MAP4K5 (KHS1) = target: T14, MAP4K5 (KHS1) (Homo sapiens, UniProt Q9Y4K4); settings: estimated, abridged dose response curve, read-out: Kinase inhibitory activity EC50
T14 construct: purchased Invitrogen (SelectScreen platform)
In short: as §1

MAPK1 (ERK2) = target: T15, MAPK1 (ERK2) (Homo sapiens, UniProt P28482); settings: estimated, abridged dose response curve, read-out: Kinase inhibitory activity EC50
T15 construct: purchased Invitrogen (SelectScreen platform)
In short: as §1

MAPK12 (p38 gamma) = target: T16, MAPK12 (p38 gamma) (Homo sapiens, UniProt P53778); settings: estimated, abridged dose response curve, read-out: Kinase inhibitory activity EC50
T16 construct: purchased Invitrogen (SelectScreen platform)
In short: as §1

MATK (HYL, CTK) = target: T17, MATK (HYL, CTK) (Homo sapiens, UniProt P42679); settings: estimated, abridged dose response curve, read-out: Kinase inhibitory activity EC50
T17 construct: purchased Invitrogen (SelectScreen service)
T17 sequence (P42679 whole entry): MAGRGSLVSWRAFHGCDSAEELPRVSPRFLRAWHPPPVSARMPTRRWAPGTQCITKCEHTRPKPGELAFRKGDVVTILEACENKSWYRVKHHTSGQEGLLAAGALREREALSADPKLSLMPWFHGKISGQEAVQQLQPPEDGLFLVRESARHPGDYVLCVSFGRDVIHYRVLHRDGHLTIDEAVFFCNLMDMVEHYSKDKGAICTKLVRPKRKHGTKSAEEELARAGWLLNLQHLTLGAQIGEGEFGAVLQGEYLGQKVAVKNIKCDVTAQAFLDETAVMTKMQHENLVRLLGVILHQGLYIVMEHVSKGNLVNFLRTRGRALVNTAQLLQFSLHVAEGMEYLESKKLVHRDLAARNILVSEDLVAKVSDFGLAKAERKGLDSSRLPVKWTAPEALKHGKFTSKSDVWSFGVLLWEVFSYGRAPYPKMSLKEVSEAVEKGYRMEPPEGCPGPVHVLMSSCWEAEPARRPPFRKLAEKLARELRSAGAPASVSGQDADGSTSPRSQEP
In short: as §1

PDGFRB (PDGFR beta) = target: T18, PDGFRB (PDGFR beta) (Homo sapiens, UniProt P09619); settings: estimated, abridged dose response curve, read-out: Kinase inhibitory activity EC50
T18 construct: purchased Invitrogen (SelectScreen platform)
In short: as §1

PKN1 (PRK1) = target: T19, PKN1 (PRK1) (Homo sapiens, UniProt Q16512); settings: estimated, abridged dose response curve, read-out: Kinase inhibitory activity EC50
T19 construct: purchased Invitrogen, Inc. (SelectScreen platform)
In short: as §1

PRKCG (PKC gamma) = target: T20, PRKCG (PKC gamma) (Homo sapiens, UniProt P05129); settings: estimated, abridged dose response curve, read-out: Kinase inhibitory activity EC50
T20 construct: purchased Invitrogen, Inc. (SelectScreen platform)
In short: as §1

PRKCN (PKD3, PRKD3) = target: T21, PRKCN (PKD3, PRKD3) (Homo sapiens, UniProt O94806); settings: estimated, abridged dose response curve, read-out: Kinase inhibitory activity EC50
T21 construct: purchased Invitrogen, Inc. (SelectScreen platform)
In short: as §1

PRKG2 (PKG2) = target: T22, PRKG2 (PKG2) (Homo sapiens, UniProt Q13237); settings: estimated, abridged dose response curve, read-out: Kinase inhibitory activity EC50
T22 construct: purchased Invitrogen, Inc. (SelectScreen platform)
In short: as §1

SGK2 = target: T23, SGK2 (Homo sapiens, UniProt Q9HBY8); settings: estimated, abridged dose response curve, read-out: Kinase inhibitory activity EC50
T23 construct: purchased Invitrogen, Inc. (SelectScreen platform)
In short: as §1

SRPK2 = target: T24, SRPK2 (Homo sapiens, UniProt P78362); settings: estimated, abridged dose response curve, read-out: Kinase inhibitory activity EC50
T24 construct: purchased Invitrogen, Inc. (SelectScreen service)
In short: as §1

STK24 (MST3) = target: T25, STK24 (MST3) (Homo sapiens, UniProt Q9Y6E0); settings: estimated, abridged dose response curve, read-out: Kinase inhibitory activity EC50
T25 construct: purchased Invitrogen (SelectScreen platform)
In short: as §1

SYK = target: T26, SYK (Homo sapiens, UniProt P43405); settings: estimated, abridged dose response curve, read-out: Kinase inhibitory activity EC50
T26 construct: purchased Invitrogen (SelectScreen)
In short: as §1

TYRO3 (RSE) = target: T27, TYRO3 (RSE) (Homo sapiens, UniProt Q06418); settings: estimated, abridged dose response curve, read-out: Kinase inhibitory activity EC50
T27 construct: purchased Invitrogen (SelectScreen service)
In short: as §1

SMILES | EC50 (ABL2 (Arg)) | EC50 (BLK) | EC50 (BTK) | EC50 (CAMK2A (CaMKII alpha)) | EC50 (CDC42 BPA (MRCKA)) | EC50 (CSNK1D (CK1 delta)) | EC50 (DYRK1A) | EC50 (DYRK3) | EC50 (EGFR (ErbB1)) | EC50 (EPHA1) | EC50 (EPHB3) | EC50 (FGFR2) | EC50 (MAP4K5 (KHS1)) | EC50 (MAPK1 (ERK2)) | EC50 (MAPK12 (p38 gamma)) | EC50 (MATK (HYL, CTK)) | EC50 (PDGFRB (PDGFR beta)) | EC50 (PKN1 (PRK1)) | EC50 (PRKCG (PKC gamma)) | EC50 (PRKCN (PKD3, PRKD3)) | further results
CCN(CC)CCNc1ccc2ncn3c4ccc(O)cc4c(=O)c1c23 [Symadex, 5-(2-(diethylamino)ethylamino)-8-hydroxy-6H-imidazo[4,5,1-de]acridin-6-one, reference compound] | 3210 nM | 220 nM | 3020 nM | > 5000 nM | > 5000 nM | 673 nM | 708 nM | 611 nM | > 5000 nM | > 5000 nM | > 5000 nM | 4500 nM | 2430 nM | > 5000 nM | > 5000 nM | > 5000 nM | 1790 nM | 4750 nM | 1890 nM | 221 nM | EC50 (ADRBK2 (BARK2, GRK3)): > 5000 nM; EC50 (PRKG2 (PKG2)): 2850 nM; EC50 (SGK2): > 5000 nM; EC50 (SRPK2): > 5000 nM; EC50 (STK24 (MST3)): 733 nM; EC50 (SYK): 3910 nM; EC50 (TYRO3 (RSE)): 2440 nM
CN(C)CCCNc1ccc2ncn3c4ccc5[nH]ncc5c4c(=O)c1c23 [Compound (IV)] | 2870 nM | 481 nM | 1440 nM | 789 nM | > 5000 nM | 4800 nM | 468 nM | 380 nM | > 5000 nM | > 5000 nM | > 5000 nM | 2860 nM | > 5000 nM | > 5000 nM | > 5000 nM | > 5000 nM | 278 nM | 1390 nM | > 5000 nM | 302 nM | EC50 (ADRBK2 (BARK2, GRK3); ADRBK2 (BARK2, GRK3), estimated, abridged dose response curve, read-out: Kinase inhibitory activity EC50): > 5000 nM; EC50 (PRKG2 (PKG2)): 1910 nM; EC50 (SGK2): > 5000 nM; EC50 (SRPK2): > 5000 nM; EC50 (STK24 (MST3)): 1040 nM; EC50 (SYK): > 5000 nM; EC50 (TYRO3 (RSE)): 3570 nM
